Columns and labels:
Assay in all cases: relative viability (nuclei count vs DMSO), 5 days (fraction); higher = more cells survive
NCI-H2023 = tested on: NCI-H2023
In short: (§1)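 A single step with final 0.05% Triton X-100, 1% formaldehyde and 1 ug/ml Hoechst fixed the cells and stained nuclei 5 days after treatment. Lung cancer cell lines in 1536-well plates had been treated by pin tool the day after seeding with one drug alone or a fixed anchor-drug dose plus five library-drug doses (not always all listed) in √10 steps, and nuclei were counted on 4× images. Relative viability is the ratio of nuclei in treated wells to nuclei in vehicle wells, taken as the median of duplicate plates.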

NCI-H2405 = tested on: NCI-H2405
In short: as §1

NCI-H1792 = tested on: NCI-H1792
In short: as §1

HARA = tested on: HARA
In short: as §1

SK-LU-1 = tested on: SK-LU-1
In short: as §1

NCI-H2085 = tested on: NCI-H2085
In short: as §1

NCI-H727 = tested on: NCI-H727
In short: as §1

NCI-H1437 = tested on: NCI-H1437
In short: as §1

NCI-H661 = tested on: NCI-H661
In short: as §1

COR-L23 = tested on: COR-L23
In short: as §1

COR-L 105 = tested on: COR-L 105
In short: as §1

UMC-11 = tested on: UMC-11
In short: as §1

NCI-H1944 = tested on: NCI-H1944
In short: as §1

NCI-H358 = tested on: NCI-H358
In short: as §1

LCLC-103H = tested on: LCLC-103H
In short: as §1

EPLC-272H = tested on: EPLC-272H
In short: as §1

HCC-366 = tested on: HCC-366
In short: as §1

HCC-15 = tested on: HCC-15
In short: as §1

NCI-H1975 = tested on: NCI-H1975
In short: as §1

HCC-78 = tested on: HCC-78
In short: as §1

HCC-44 = tested on: HCC-44
In short: as §1

HCC-827 = tested on: HCC-827
In short: as §1

Cc1cnc(-c2cnc(NCCNc3ccc(C#N)cn3)nc2-c2ccc(Cl)cc2Cl)[nH]1 + C[C@@H](Oc1cc(-c2cnn(C3CCNCC3)c2)cnc1N)c1c(Cl)ccc(F)c1Cl [Crizotinib] (partner 1 µM)
relative viability (NCI-H2023; first compound 0.08 µM): 0.775 | relative viability (NCI-H2023; first compound 0.253 µM): 0.696 | relative viability (NCI-H2023; first compound 0.8 µM): 0.664 | relative viability (NCI-H2023; first compound 2.53 µM): 0.688 | relative viability (NCI-H2405; first compound 0.08 µM): 0.883 | relative viability (NCI-H2405; first compound 0.253 µM): 0.774 | relative viability (NCI-H2405; first compound 0.8 µM): 0.797 | relative viability (NCI-H2405; first compound 2.53 µM): 0.809 | relative viability (NCI-H1792; first compound 0.08 µM): 0.975 | relative viability (NCI-H1792; first compound 0.253 µM): 0.803 | relative viability (NCI-H1792; first compound 0.8 µM): 0.947 | relative viability (NCI-H1792; first compound 2.53 µM): 0.936 | relative viability (HARA; first compound 0.08 µM): 1.02 | relative viability (HARA; first compound 0.253 µM): 0.956 | relative viability (HARA; first compound 0.8 µM): 1.06 | relative viability (HARA; first compound 2.53 µM): 1.12 | relative viability (SK-LU-1; first compound 0.08 µM): 1.01 | relative viability (SK-LU-1; first compound 0.253 µM): 0.918 | relative viability (SK-LU-1; first compound 0.8 µM): 1.17 | relative viability (SK-LU-1; first compound 2.53 µM): 1.3 | relative viability (NCI-H2085; first compound 0.08 µM): 0.719 | relative viability (NCI-H2085; first compound 0.253 µM): 0.888 | relative viability (NCI-H2085; first compound 0.8 µM): 1.06 | relative viability (NCI-H2085; first compound 2.53 µM): 0.974 | relative viability (NCI-H727; first compound 0.08 µM): 1.67 | relative viability (NCI-H727; first compound 0.253 µM): 0.771 | relative viability (NCI-H727; first compound 0.8 µM): 0.797 | relative viability (NCI-H727; first compound 2.53 µM): 0.676 | relative viability (NCI-H1437; first compound 0.08 µM): 0.912 | relative viability (NCI-H1437; first compound 0.253 µM): 0.943 | relative viability (NCI-H1437; first compound 0.8 µM): 0.944 | relative viability (NCI-H1437; first compound 2.53 µM): 0.981 | relative viability (NCI-H661; first compound 0.08 µM): 0.924 | relative viability (NCI-H661; first compound 0.253 µM): 0.941 | relative viability (NCI-H661; first compound 0.8 µM): 0.947 | relative viability (NCI-H661; first compound 2.53 µM): 0.867 | relative viability (COR-L23; first compound 0.08 µM): 0.619 | relative viability (COR-L23; first compound 0.253 µM): 0.605 | relative viability (COR-L23; first compound 0.8 µM): 0.833 | relative viability (COR-L23; first compound 2.53 µM): 0.722 | relative viability (COR-L 105; first compound 0.08 µM): 0.869 | relative viability (COR-L 105; first compound 0.253 µM): 0.716 | relative viability (COR-L 105; first compound 0.8 µM): 0.706 | relative viability (COR-L 105; first compound 2.53 µM): 0.529 | relative viability (UMC-11; first compound 0.08 µM): 0.82 | relative viability (UMC-11; first compound 0.253 µM): 0.551 | relative viability (UMC-11; first compound 0.8 µM): 0.598 | relative viability (UMC-11; first compound 2.53 µM): 0.602 | relative viability (NCI-H1944; first compound 0.08 µM): 1.11 | relative viability (NCI-H1944; first compound 0.8 µM): 1.16 | relative viability (NCI-H1944; first compound 2.53 µM): 1.1 | relative viability (NCI-H358; first compound 0.08 µM): 0.609 | relative viability (NCI-H358; first compound 0.253 µM): 0.548 | relative viability (NCI-H358; first compound 0.8 µM): 0.569 | relative viability (NCI-H358; first compound 2.53 µM): 0.46 | relative viability (LCLC-103H; first compound 0.08 µM): 1.04 | relative viability (LCLC-103H; first compound 0.253 µM): 1.12 | relative viability (LCLC-103H; first compound 0.8 µM): 0.984 | relative viability (LCLC-103H; first compound 2.53 µM): 0.954 | relative viability (EPLC-272H; first compound 0.08 µM): 0.928 | relative viability (EPLC-272H; first compound 0.253 µM): 0.872 | relative viability (EPLC-272H; first compound 0.8 µM): 0.832 | relative viability (EPLC-272H; first compound 2.53 µM): 0.883 | relative viability (HCC-366; first compound 0.08 µM): 0.654 | relative viability (HCC-366; first compound 0.253 µM): 0.408 | relative viability (HCC-366; first compound 0.8 µM): 0.534 | relative viability (HCC-366; first compound 2.53 µM): 0.422 | relative viability (HCC-15; first compound 0.08 µM): 0.781 | relative viability (HCC-15; first compound 0.253 µM): 0.659 | relative viability (HCC-15; first compound 0.8 µM): 0.799 | relative viability (HCC-15; first compound 2.53 µM): 0.803 | relative viability (NCI-H1975; first compound 0.08 µM): 0.968 | relative viability (NCI-H1975; first compound 0.253 µM): 0.907 | relative viability (NCI-H1975; first compound 0.8 µM): 0.906 | relative viability (NCI-H1975; first compound 2.53 µM): 0.569 | relative viability (HCC-78; first compound 0.08 µM): 0.349 | relative viability (HCC-78; first compound 0.253 µM): 0.336 | relative viability (HCC-78; first compound 0.8 µM): 0.297 | relative viability (HCC-78; first compound 2.53 µM): 0.362 | relative viability (HCC-44; first compound 0.08 µM): 0.781 | relative viability (HCC-44; first compound 0.253 µM): 0.886 | relative viability (HCC-44; first compound 0.8 µM): 0.774 | relative viability (HCC-44; first compound 2.53 µM): 0.767 | relative viability (HCC-827; first compound 0.08 µM): 0.929 | relative viability (HCC-827; first compound 0.8 µM): 0.882 | relative viability (HCC-827; first compound 2.53 µM): 0.923

— the supplement of paper PMC10307832
